Experimental findings from US20080015237A1 (ASTRAZENECA AB, priority 2006, published 2008) are described below.

Each structure is given as a SMILES string. pIC50: −log10 of the molar value.

By pIC50 is commonly meant the negative decadic logarithm of the IC50, by convention in mol/L.

human Kv1.5 channel, sequence (P22460 whole entry): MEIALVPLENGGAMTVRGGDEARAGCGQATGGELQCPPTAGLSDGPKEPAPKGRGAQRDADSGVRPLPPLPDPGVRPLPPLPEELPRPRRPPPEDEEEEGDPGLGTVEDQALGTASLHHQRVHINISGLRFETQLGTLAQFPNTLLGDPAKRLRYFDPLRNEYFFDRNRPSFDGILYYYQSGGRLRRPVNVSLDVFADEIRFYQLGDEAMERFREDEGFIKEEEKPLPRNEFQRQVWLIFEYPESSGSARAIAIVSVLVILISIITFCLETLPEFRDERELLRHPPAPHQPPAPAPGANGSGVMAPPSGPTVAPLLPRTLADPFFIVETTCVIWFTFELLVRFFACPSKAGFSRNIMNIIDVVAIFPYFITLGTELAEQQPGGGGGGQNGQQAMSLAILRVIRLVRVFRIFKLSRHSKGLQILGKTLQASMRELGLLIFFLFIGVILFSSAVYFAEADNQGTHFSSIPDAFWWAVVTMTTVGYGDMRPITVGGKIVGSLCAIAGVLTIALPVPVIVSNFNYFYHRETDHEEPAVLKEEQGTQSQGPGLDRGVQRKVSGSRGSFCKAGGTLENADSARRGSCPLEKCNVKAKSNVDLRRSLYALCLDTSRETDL

This assay deals with human Kv1.5 channel (Homo sapiens, UniProt P22460). Briefly: Test A: Rb+ efflux assay. Type of assay: cell-based. To be noted: CHO cells stably transfected with cDNA for human Kv1.5. In short, it runs like this:
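Rb+ efflux measured by atomic absorption spectrometry of supernatants from stable human Kv1.5 CHO monolayers. Cells preloaded with Rb+ (3-4 h, 37 °C); compounds added before channel activation by high-K+ buffer, followed by brief incubation.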
`O=C(NCc1ccccc1)C1c2ccccc2C(=O)N1Cc1ccccc1-c1ccccc1` (centres unmarked) [N-benzyl-2-(biphenyl-2-ylmethyl)-3-oxoisoindoline-1-carboxamide] gave a pIC50 of 6.00. With `O=C(NCc1ccccc1)C1c2cc(Cl)ccc2C(=O)N1Cc1ccccc1-c1ccccc1` (centres unmarked) [N-benzyl-2-(biphenyl-2-ylmethyl)-6-chloro-3-oxoisoindoline-1-carboxamide] the figure was 6.38; with `O=C(NCc1ccccc1)C1c2cc(F)ccc2C(=O)N1Cc1ccccc1-c1ccccc1` (centres unmarked) [N-benzyl-2-(biphenyl-2-ylmethyl)-6-fluoro-3-oxoisoindoline-1-carboxamide], 6.00.

Compound `O=C(NCc1ccccc1)C1c2ccccc2C(=O)N1CCc1ccc(Cl)cc1` (centres unmarked) [N-benzyl-2-[2-(4-chlorophenyl)ethyl]-3-oxoisoindoline-1-carboxamide] gave a pIC50 of 6.25. With `CCN(Cc1ccccc1)C(=O)C1c2ccccc2C(=O)N1CCc1ccc(Cl)cc1` (centres unmarked) [N-benzyl-2-[2-(4-chlorophenyl)ethyl]-N-ethyl-3-oxoisoindoline-1-carboxamide] the figure was 6.03; with `CN(Cc1ccccc1)C(=O)C1c2ccccc2C(=O)N1CCc1ccc(Cl)cc1` (centres unmarked) [N-benzyl-2-[2-(4-chlorophenyl)ethyl]-N-methyl-3-oxoisoindoline-1-carboxamide], 6.05. To `CC(CN1C(=O)c2ccccc2C1C(=O)NCc1ccccc1)c1ccc(Cl)cc1` (centres unmarked) [N-benzyl-2-[2-(4-chlorophenyl)propyl]-3-oxoisoindoline-1-carboxamide] belongs 6.29; to `COc1ccc2c(c1OC)C(=O)N(CC(C)c1ccc(Cl)cc1)C2C(=O)NCc1ccccc1` (centres unmarked) [N-benzyl-2-[2-(4-chlorophenyl)propyl]-4,5-dimethoxy-3-oxoisoindoline-1-carboxamide], 6.21.

In the case of `COc1cc2c(cc1OC)C(C(=O)NCc1ccccc1)N(CC(C)c1ccc(Cl)cc1)C2=O` (centres unmarked) [N-benzyl-2-[2-(4-chlorophenyl)propyl]-5,6-dimethoxy-3-oxoisoindoline-1-carboxamide], the pIC50 is 6.13. `COc1ccc2c(c1)C(=O)N(CC(C)c1ccc(Cl)cc1)C2C(=O)NCc1ccccc1` (centres unmarked) [N-benzyl-2-[2-(4-chlorophenyl)propyl]-5-methoxy-3-oxoisoindoline-1-carboxamide]: the pIC50 was 6.15. The pIC50 values of the last two compounds are within 0.2 log units of each other.

On to `CC(c1ccccc1)N1C(=O)c2ccccc2C1C(=O)NCc1ccccc1` (centres unmarked) [N-benzyl-3-oxo-2-(1-phenylethyl)isoindoline-1-carboxamide], for which the pIC50 was 5.22. To `CCC(c1ccccc1)N1C(=O)c2ccccc2C1C(=O)NCc1ccccc1` (centres unmarked) [N-benzyl-3-oxo-2-(1-phenylpropyl)isoindoline-1-carboxamide] belongs 6.40. With `O=C(NCc1ccccc1)C1c2ccccc2C(=O)N1Cc1cc(-c2ccccc2)no1` (centres unmarked) [N-benzyl-3-oxo-2-[(3-phenylisoxazol-5-yl)methyl]isoindoline-1-carboxamide] the figure was 6.00. To `C[C@H](c1ccccc1)N1C(=O)c2cc(Br)ccc2C1C(=O)NCc1ccccc1` (stereo partly drawn) [N-benzyl-5-bromo-3-oxo-2-[(1R)-1-phenylethyl]isoindoline-1-carboxamide] belongs 5.68; to `C[C@H](c1ccccc1)N1C(=O)c2ccc(Br)cc2C1C(=O)NCc1ccccc1` (stereo partly drawn) [N-benzyl-6-bromo-3-oxo-2-[(1R)-1-phenylethyl]isoindoline-1-carboxamide], 6.68; to `CC(CN1C(=O)c2ccc(Cl)cc2C1C(=O)NCc1ccccc1)c1ccc(Cl)cc1` (centres unmarked) [N-benzyl-6-chloro-2-[2-(4-chlorophenyl)propyl]-3-oxoisoindoline-1-carboxamide], 6.82. `C[C@H](c1ccccc1)N1C(=O)c2ccc(Cl)cc2C1C(=O)NCc1ccccc1` (stereo partly drawn) [N-benzyl-6-chloro-3-oxo-2-[(1R)-1-phenylethyl]isoindoline-1-carboxamide] showed a pIC50 of 6.26.

For the compound `C[C@@H](c1ccccc1)N1C(=O)c2ccc(Cl)cc2C1C(=O)NCc1ccccc1` (stereo partly drawn) [N-benzyl-6-chloro-3-oxo-2-[(1S)-1-phenylethyl]isoindoline-1-carboxamide], the pIC50 was 5.66. To `O=C(NCc1ccccc1)C1c2cc(F)ccc2C(=O)N1Cc1ccccc1C(F)(F)F` (centres unmarked) [N-benzyl-6-fluoro-3-oxo-2-[2-(trifluoromethyl)benzyl]isoindoline-1-carboxamide] belongs 5.85; to `C[C@H](c1ccccc1)N1C(=O)c2ccc(F)cc2C1C(=O)NCc1ccccc1` (stereo partly drawn) [N-benzyl-6-fluoro-3-oxo-2-[(1R)-1-phenylethyl]isoindoline-1-carboxamide], 5.89. In turn, `CCCCN(Cc1ccccc1)C(=O)C1c2ccccc2C(=O)N1CCc1ccc(Cl)cc1` (centres unmarked) [N-benzyl-N-butyl-2-[2-(4-chlorophenyl)ethyl]-3-oxoisoindoline-1-carboxamide] gave a pIC50 of 6.47. To `CCCCNC(=O)C1c2ccccc2C(=O)N1CC(C)(C)c1ccc(Cl)cc1` (centres unmarked) [N-butyl-2-[2-(4-chlorophenyl)-2-methyl-propyl]-3-oxo-1H-isoindole-1-carboxamide] belongs 6.28; to `CCCCNC(=O)C1c2ccccc2C(=O)N1CC(C)c1ccc(Cl)cc1` (centres unmarked) [N-butyl-2-[2-(4-chlorophenyl)propyl]-3-oxoisoindoline-1-carboxamide], 6.14.
